Entries after “also recorded” stand apart in the source; their conditions may differ.
Key:
HLA alleles of class I = experiment: Affinity of epitopes for HLA alleles of class I; type: binding, human; conditions: for Concatenation affinity allele CII: PSA KC-2.6 Peptide CII; for Affinity for HLA alleles of class I: LmlRAB-IIB core; for Affinity allele class I: LmLRAB-IIA peptides; for Affinity for the HLA alleles of class I: H2B-1 epitopes, Table 1
Excerpt: (§1) The multiepitopic peptide compounds (24 to 40-mer), having a high affinity with a maximized number of HLA molecules of class I and of class II, such as the affinities for the alleles HLA of class I and HLA of class II of the epitopes in the peptides of the sequences SEQ ID NO: 22, 23, 65, 66, 69, 73, 77, 96, 97, 137, 138, and 157, 185, have a high immunoprevalent potential corresponding to an optimal vaccine coverage, in particular for the populations concerned. The degree of coverage of the peptide compounds of the invention show a very high added value compared with the peptides of the prior art.

HLA alleles of class II = experiment: Affinity of epitopes for HLA alleles of class II; type: binding, human; conditions: for Concatenation affinity for the HLA alleles of class II: H2B-II peptides; for Concatenation affinity for the HLA alleles of class II / Affinity HLA alleles of class II: Table 1; for Affinity HLA alleles of class II: H2B-II core epitopes
Excerpt: as §1

[1] = LmlRAB-IIB Peptide CII, Table 2

ARSARSGEGY (listed as Leishmania infantum) [SEQ ID NO: 151]
Concatenation affinity allele CII (HLA alleles of class I; Table 3): HLA-B*15:01

ARSGEGYFL (listed as Leishmania infantum) [SEQ ID NO: 152]
Concatenation affinity allele CII (HLA alleles of class I; Table 3): HLA-B*39:01

DVHYSEVSA (Leishmania major) [SEQ ID NO: 128]
Concatenation affinity for HLA alleles of class I (HLA alleles of class I; [1]): HLA-A*68*02

ENAIVTSRK (Leishmania major) [SEQ ID NO: 129]
Concatenation affinity for HLA alleles of class I (HLA alleles of class I; [1]): HLA-A*68:01

EVFDLFTDV (Leishmania major) [SEQ ID NO: 120]
Affinity for HLA alleles of class I (HLA alleles of class I; Table 2): HLA-A*02:03,; also recorded: HLA-A*02:06,; also recorded: HLA-A*68:02

FDLFTDVHY (Leishmania major) [SEQ ID NO: 130]
Concatenation affinity for HLA alleles of class I (HLA alleles of class I; [1]): HLA-A*02:01, HLA-B*35:01

FLTDEKTSL (listed as Leishmania infantum) [SEQ ID NO: 146]
Affinity HLA alleles of class I (HLA alleles of class I; PSA KC-2.6 core, Table 3): HLA-A*02:01,; also recorded: HLA-A*02:03,; also recorded: HLA-A*02:06,; also recorded: HLA-B*39:01

FLTDEKTSLV (listed as Leishmania infantum) [SEQ ID NO: 153]
Concatenation affinity allele CII (HLA alleles of class I; Table 3): HLA-A*01:01, HLA-A*02:01

GSDYSHSMIR (listed as Leishmania infantum) [SEQ ID NO: 179]
Concatenation affinity for HLA alleles of class I (HLA alleles of class I; PSA KC-2.7 peptides, Table 3): HLA-A*03:01

KEMPSGSDY (listed as Leishmania infantum) [SEQ ID NO: 180]
Concatenation affinity for HLA alleles of class I (HLA alleles of class I; PSA KC-2.7 peptides, Table 3): HLA-B*15:01, HLA-A*30:02,; also recorded: HLA-B*44:02, HLA-B*44:03

KGRLHSVVG (Leishmania major) [SEQ ID NO: 92]
Affinity allele class I (HLA alleles of class I; Table 2): HLA-A*30:1

KGRSENAIV (Leishmania major) [SEQ ID NO: 131]
Concatenation affinity for HLA alleles of class I (HLA alleles of class I; [1]): HLA-A*30:01

KVQEEVFDL (Leishmania major) [SEQ ID NO: 132]
Concatenation affinity for HLA alleles of class I (HLA alleles of class I; [1]): HLA-A*02:01, HLA-A*02:06, HLA-A*32:01

LFTDVHYSEV (Leishmania major) [SEQ ID NO: 133]
Concatenation affinity for HLA alleles of class I (HLA alleles of class I; [1]): HLA-A*01:01

LTDEKTSLVY (listed as Leishmania infantum) [SEQ ID NO: 154]
Concatenation affinity allele CII (HLA alleles of class I; Table 3): HLA-A*01:01, HLA-B*15:01

MIRDLDFSNM (listed as Leishmania infantum) [SEQ ID NO: 181]
Concatenation affinity for HLA alleles of class I (HLA alleles of class I; PSA KC-2.7 peptides, Table 3): HLA-B*15:01

MPSGSDYSH (listed as Leishmania infantum) [SEQ ID NO: 182]
Concatenation affinity for HLA alleles of class I (HLA alleles of class I; PSA KC-2.7 peptides, Table 3): HLA-B*35:01, HLA-B*53:01

NMGLLLSGT (listed as Leishmania infantum) [SEQ ID NO: 183]
Concatenation affinity for HLA alleles of class I (HLA alleles of class I; PSA KC-2.7 peptides, Table 3): HLA-A*02:02

RLHSVVGRH (Leishmania major) [SEQ ID NO: 93]
Affinity allele class I (HLA alleles of class I; Table 2): HLA-A*03:01, HLA-A*30:02

RSARSGEGY (listed as Leishmania infantum) [SEQ ID NO: 155]
Concatenation affinity allele CII (HLA alleles of class I; Table 3): HLA-A*30:02, HLA-B*15:01, HLA-B*57:01,; also recorded: HLA-B*58:01

RSARSGEGYF (listed as Leishmania infantum) [SEQ ID NO: 156]
Concatenation affinity allele CII (HLA alleles of class I; Table 3): HLA-B*15:01, HLA-B*58:01

SENAIVTSR (Leishmania major) [SEQ ID NO: 134]
Concatenation affinity for HLA alleles of class I (HLA alleles of class I; [1]): HLA-A*31:01, HLA-B*44:03, HLA-A*68:01

SMIRDLDFS (listed as Leishmania infantum) [SEQ ID NO: 184]
Concatenation affinity for HLA alleles of class I (HLA alleles of class I; PSA KC-2.7 peptides, Table 3): HLA-A*02:03, HLA-A*02:06

SMSHRTMKSM (Leishmania major) [SEQ ID NO: 19]
Affinity for the HLA alleles of class I (HLA alleles of class I): HLA-B*15:01,; also recorded: HLA-B*57:01,; also recorded: HLA-A*02:03,; also recorded: HLA-B*08:01

SVVGRHLSI (Leishmania major) [SEQ ID NO: 94]
Affinity allele class I (HLA alleles of class I; Table 2): HLA-A*02:03, HLA-A*02:06, HLA-A*32:01,; also recorded: HLA-B*08:01

TMKSMSHRTM (Leishmania major) [SEQ ID NO: 21]
Affinity for the HLA alleles of class I (HLA alleles of class I): HLA-B*15:01,; also recorded: HLA-B*08:01

TSRKDQEEV [SEQ ID NO: 135]
Concatenation affinity for HLA alleles of class I (HLA alleles of class I; [1]): HLA-B*15:01, HLA-A*30:01, HLA-A*68:02

VHYSEVSAK (Leishmania major) [SEQ ID NO: 136]
Concatenation affinity for HLA alleles of class I (HLA alleles of class I; [1]): HLA-A*03:01

VQEEVFDLF (Leishmania major) [SEQ ID NO: 126]
Affinity for HLA alleles of class I (HLA alleles of class I; Table 2): HLA-A*02:06

VQEEVFDLFTDVHYS (Leishmania major) [SEQ ID NO: 117]
Concatenation affinity for HLA alleles of class II (HLA alleles of class II; LmlRAB-IIB peptides, Table 2): HLA-DRB1*03:01, HLA-DRB1*04:01,; also recorded: HLA-DRB1*04:05, HLA-DRB1*07:01,; also recorded: HLA-DRB1*15:01, HLA-DPA1*01:03/DPB1*02:01,; also recorded: HLA-DPA1*02:01/DPB1*05:01,; also recorded: HLA-DPA1*03:01/DPB1*04:02

VTSRKQEEVFDLFT (Leishmania major) [SEQ ID NO: 118]
Concatenation affinity for HLA alleles of class II (HLA alleles of class II; LmlRAB-IIB peptides, Table 2): HLA-DRB1*03:01, HLA-DPA1*01:03/DPB1*02:01,; also recorded: HLA-DPA1*02:01/DPB1*05:01,; also recorded: HLA-DPA1*03:01/HLA-DPB1*04:02,; also recorded: HLA-DPA1*02:01/HLA-DPB1*14:01

VVGRHLSIV (Leishmania major) [SEQ ID NO: 95]
Affinity allele class I (HLA alleles of class I; Table 2): HLA-A*02:03

VVGRHLSIVADHMPH (Leishmania major) [SEQ ID NO: 84]
Concatenation affinity for HLA alleles of class II (HLA alleles of class II; LmLRAB-IIA peptides, Table 2): HLA-DRB1*01:01

VYVGRSLKAINAQMS (Leishmania major) [SEQ ID NO: 32]
Concatenation affinity for the HLA alleles of class II (HLA alleles of class II): HLA-DRB1*01:01, HLA-DRB1*04:05, HLA-DRB1*07:01,; also recorded: HLA-DRB4*01:01, HLA-DRB1*04:01, HLA-DRB1*09:01,; also recorded: HLA-DRB1*03:01, HLA-DRB1*11:01, HLA-DRB1*15:01,; also recorded: HLA-DRB1*08:02

WNVYVGRSL (Leishmania major) [SEQ ID NO: 53]
Affinity HLA alleles of class II (HLA alleles of class II): HLA-DRB1*04:05,; also recorded: HLA-DRB1*07:01,; also recorded: HLA-DRB1*09:01,; also recorded: HLA-DRB1*15:01,; also recorded: HLA-DRB5*01:01

WNVYVGRSLKAINAQ (Leishmania major) [SEQ ID NO: 30]
Concatenation affinity for the HLA alleles of class II (HLA alleles of class II): HLA-DRB5*01:01, HLA-DRB1*04:05, HLA-DPA1*03:01/; also recorded: DPB1*04:02, HLA-DRB1*01:01, HLA-DRB1*03:01,; also recorded: HLA-DRB1*04:01, HLA-DRB1*11:01, HLA-DRB1*07:01,; also recorded: HLA-DRB9*01:01, HLA-DRB1*15:01, HLA-DPA1*02:01/; also recorded: DPB1*01:01, HLA-DRB1*08:02

YFLTDEKTS (listed as Leishmania infantum) [SEQ ID NO: 150]
Concatenation affinity for HLA alleles of class II (HLA alleles of class II; PSA KC-2.6 core, Table 3): HLA-DRB1*04:01,; also recorded: HLA-DRB1*11:01

YFLTDEKTSLVYGDG (listed as Leishmania infantum) [SEQ ID NO: 145]
Concatenation affinity for HLA alleles of class II (HLA alleles of class II; PSA KC-2.6 peptides, Table 3): HLA-DRB1*01:01, HLA-DRB1*03:01,; also recorded: HLA-DRB1*04:01, HLA-DRB3*01:01,; also recorded: HLA-DRB3*02:02,; also recorded: HLA-DPA1*03:01/DPB1*04:02,; also recorded: HLA-DPA1*02:01/DPB1*14:01

YSEVSAKTK (Leishmania major) [SEQ ID NO: 127]
Concatenation affinity for HLA alleles of class II (HLA alleles of class II; LmlRAB-IIB core, Table 2): HLA-DRB1*07:01,; also recorded: HLA-DRB5*01:01

YSHSMIRDL (listed as Leishmania infantum) [SEQ ID NO: 178]
Concatenation affinity for HLA alleles of class II (HLA alleles of class II; PSA KC-2.7 core, Table 3): HLA-DRB1*04:05,; also recorded: HLA-DRB1*07:01,; also recorded: HLA-DRB1*09:01,; also recorded: HLA-DPA1*02:01/; also recorded: DPB1*01:01

YSHSMIRDLDFSNMG (listed as Leishmania infantum) [SEQ ID NO: 170]
Concatenation affinity for HLA alleles of class II (HLA alleles of class II; PSA KC-2.7 peptides, Table 3): HLA-DRB1*04:01, HLA-DRB1*04:05,; also recorded: HLA-DRB1*07:01, HLA-DRB1*08:02,; also recorded: HLA-DRB1*09:01, HLA-DRB1*12:01,; also recorded: HLA-DRB4*01:01

YVGRSLKAI (Leishmania major) [SEQ ID NO: 54]
Affinity HLA alleles of class II (HLA alleles of class II): HLA-DRB1*08:02,; also recorded: HLA-DPA1*02:01/; also recorded: DPB1*01:01

YVGRSLKAINAQMSM (Leishmania major) [SEQ ID NO: 33]
Concatenation affinity for the HLA alleles of class II (HLA alleles of class II): HLA-DRB1*04:01, HLA-DRB1*11:01, HLA-DRB1*08:02,; also recorded: HLA-DRB1*01:01, HLA-DRB1*04:05, HLA-DRB1*07:01,; also recorded: HLA-DRB1*09:01, HLA-DRB4*01:01, HLA-DRB5*01:01,

Reference: patent publication US11559575B2, “Multi-epitopic peptide compounds and vaccines against leishmaniasis” (INSTITUT DE RECHERCHE POUR LE DEVELOPPEMENT, priority 2018, dated 2023)
